Measured values from patent publication US12077503B2, “Substituted cyclic amides and their use as herbicides” (FMC CORPORATION, priority 2015, dated 2024).

Columns and labels:
Assay in all cases: Test C preemergence
Assay type in all cases: in vivo
Conditions in all cases: scale 0 to 100, 0 no effect, 100 complete control
[1] = system: barnyardgrass (Echinochloa crus-galli)
Procedure, shortened: (§1)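 Seeds in loam-sand soil treated preemergence, or plants in peat-based medium sprayed postemergence at 2–18 cm (1- to 4-leaf stage), with compound in a non-phytotoxic solvent mixture containing surfactant. Greenhouse-held 13–15 d, then visually rated against controls on a 0–100 scale (0 = no effect, 100 = complete control); dash = not tested.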

[2] = system: blackgrass (Alopecurus myosuroides)
Procedure, shortened: as §1

corn (Zea mays) = system: corn (Zea mays)
Procedure, shortened: as §1

[3] = system: crabgrass, large (large crabgrass, Digitaria sanguinalis)
Procedure, shortened: as §1

[4] = system: foxtail, giant (giant foxtail, Setaria faberii)
Procedure, shortened: as §1

[5] = system: johnsongrass (Sorghum halepense)
Procedure, shortened: as §1

[6] = system: lambsquarters (Chenopodium album)
Procedure, shortened: as §1

[7] = system: morningglory (Ipomoea coccinea)
Procedure, shortened: as §1

[8] = system: nutsedge, yellow (yellow nutsedge, Cyperus esculentus)
Procedure, shortened: as §1

[9] = system: oilseed rape (Brassica napus)
Procedure, shortened: as §1

[10] = system: ragweed (common ragweed, Ambrosia elatior)
Procedure, shortened: as §1

[11] = system: ryegrass, Italian (Italian ryegrass, Lolium multiflorum)
Procedure, shortened: as §1

soybean (Glycine max) = system: soybean (Glycine max)
Procedure, shortened: as §1

[12] = system: velvetleaf (Abutilon theophrasti)
Procedure, shortened: as §1

[13] = system: waterhemp (common waterhemp, Amaranthus rudis)
Procedure, shortened: as §1

[14] = system: wheat (winter wheat, Triticum aestivum)
Procedure, shortened: as §1

[15] = system: Galium (catchweed bedstraw, Galium aparine)
Procedure, shortened: as §1

## CN1CC(c2cccc(C(F)(F)F)c2)C(C)(C(=O)Nc2ccccc2F)C1=O (stereo not shown) [Compound 428]
[1]; 31 g ai/ha
  Plant response rating, Barnyardgrass: 90
[1]; 62 g ai/ha
  Plant response rating, Barnyardgrass: 95
[1]; 125 g ai/ha
  Plant response rating, Barnyardgrass: 95
[1]; 250 g ai/ha
  Plant response rating, Barnyardgrass: 98
[2]; 31 g ai/ha
  Plant response rating, Blackgrass: 0
[2]; 62 g ai/ha
  Plant response rating, Blackgrass: 0
[2]; 125 g ai/ha
  Plant response rating, Blackgrass: 30
[2]; 250 g ai/ha
  Plant response rating, Blackgrass: 30
Corn (Zea mays); 31 g ai/ha
  Plant response rating, Corn: 15
Corn (Zea mays); 62 g ai/ha
  Plant response rating, Corn: 25
Corn (Zea mays); 125 g ai/ha
  Plant response rating, Corn: 55
Corn (Zea mays); 250 g ai/ha
  Plant response rating, Corn: 70
[3]; 31 g ai/ha
  Plant response rating, Crabgrass, Large: 90
[3]; 62 g ai/ha
  Plant response rating, Crabgrass, Large: 95
[3]; 125 g ai/ha
  Plant response rating, Crabgrass, Large: 98
[3]; 250 g ai/ha
  Plant response rating, Crabgrass, Large: 98
[4]; 31 g ai/ha
  Plant response rating, Foxtail, Giant: 85
[4]; 62 g ai/ha
  Plant response rating, Foxtail, Giant: 90
[4]; 125 g ai/ha
  Plant response rating, Foxtail, Giant: 90
[4]; 250 g ai/ha
  Plant response rating, Foxtail, Giant: 95
[5]; 31 g ai/ha
  Plant response rating, Johnsongrass: 5
[5]; 62 g ai/ha
  Plant response rating, Johnsongrass: 50
[5]; 125 g ai/ha
  Plant response rating, Johnsongrass: 65
[5]; 250 g ai/ha
  Plant response rating, Johnsongrass: 75
[6]; 31 g ai/ha
  Plant response rating, Lambsquarters: 0
[6]; 62 g ai/ha
  Plant response rating, Lambsquarters: 10
[6]; 125 g ai/ha
  Plant response rating, Lambsquarters: 35
[6]; 250 g ai/ha
  Plant response rating, Lambsquarters: 65
[7]; 31 g ai/ha
  Plant response rating, Morningglory: 0
[7]; 62 g ai/ha
  Plant response rating, Morningglory: 0
[7]; 125 g ai/ha
  Plant response rating, Morningglory: 0
[7]; 250 g ai/ha
  Plant response rating, Morningglory: 0
[8]; 31 g ai/ha
  Plant response rating, Nutsedge, Yellow: 0
[8]; 62 g ai/ha
  Plant response rating, Nutsedge, Yellow: 0
[8]; 125 g ai/ha
  Plant response rating, Nutsedge, Yellow: 0
[8]; 250 g ai/ha
  Plant response rating, Nutsedge, Yellow: 30
[9]; 31 g ai/ha
  Plant response rating, Oilseed Rape: 0
[9]; 62 g ai/ha
  Plant response rating, Oilseed Rape: 0
[9]; 125 g ai/ha
  Plant response rating, Oilseed Rape: 0
[9]; 250 g ai/ha
  Plant response rating, Oilseed Rape: 15
[10]; 31 g ai/ha
  Plant response rating, Ragweed: 0
[10]; 62 g ai/ha
  Plant response rating, Ragweed: 0
[10]; 125 g ai/ha
  Plant response rating, Ragweed: 0
[10]; 250 g ai/ha
  Plant response rating, Ragweed: 0
[11]; 62 g ai/ha
  Plant response rating, Ryegrass, Italian: 40
[11]; 125 g ai/ha
  Plant response rating, Ryegrass, Italian: 40
[11]; 250 g ai/ha
  Plant response rating, Ryegrass, Italian: 45
Soybean (Glycine max); 62 g ai/ha
  Plant response rating, Soybean: 0
Soybean (Glycine max); 125 g ai/ha
  Plant response rating, Soybean: 0
Soybean (Glycine max); 250 g ai/ha
  Plant response rating, Soybean: 15
[12]; 62 g ai/ha
  Plant response rating, Velvetleaf: 0
[12]; 125 g ai/ha
  Plant response rating, Velvetleaf: 0
[12]; 250 g ai/ha
  Plant response rating, Velvetleaf: 10
[13]; 62 g ai/ha
  Plant response rating, Waterhemp: 0
[13]; 125 g ai/ha
  Plant response rating, Waterhemp: 10
[13]; 250 g ai/ha
  Plant response rating, Waterhemp: 35
[14]; 62 g ai/ha
  Plant response rating, Wheat: 15
[14]; 125 g ai/ha
  Plant response rating, Wheat: 50
[14]; 250 g ai/ha
  Plant response rating, Wheat: 80

## Cc1ccc(C2CN(C)C(=O)C2C(=O)Nc2cccc(F)c2F)cc1F (stereo not shown) [Compound 464]
[15]; 31 g ai/ha
  Plant response rating, Galium: 90
[15]; 62 g ai/ha
  Plant response rating, Galium: 95
[15]; 125 g ai/ha
  Plant response rating, Galium: 95
[15]; 250 g ai/ha
  Plant response rating, Galium: 95
[1]; 31 g ai/ha
  Plant response rating, Barnyardgrass: 90
[1]; 62 g ai/ha
  Plant response rating, Barnyardgrass: 95
[1]; 125 g ai/ha
  Plant response rating, Barnyardgrass: 95
[1]; 250 g ai/ha
  Plant response rating, Barnyardgrass: 98
[2]; 31 g ai/ha
  Plant response rating, Blackgrass: 80
[2]; 62 g ai/ha
  Plant response rating, Blackgrass: 85
[2]; 125 g ai/ha
  Plant response rating, Blackgrass: 85
[2]; 250 g ai/ha
  Plant response rating, Blackgrass: 85
Corn (Zea mays); 31 g ai/ha
  Plant response rating, Corn: 50
Corn (Zea mays); 62 g ai/ha
  Plant response rating, Corn: 70
Corn (Zea mays); 125 g ai/ha
  Plant response rating, Corn: 75
Corn (Zea mays); 250 g ai/ha
  Plant response rating, Corn: 90
[3]; 31 g ai/ha
  Plant response rating, Crabgrass, Large: 95
[3]; 62 g ai/ha
  Plant response rating, Crabgrass, Large: 100
[3]; 125 g ai/ha
  Plant response rating, Crabgrass, Large: 100
[3]; 250 g ai/ha
  Plant response rating, Crabgrass, Large: 100
[5]; 31 g ai/ha
  Plant response rating, Johnsongrass: 35
[5]; 62 g ai/ha
  Plant response rating, Johnsongrass: 80
[5]; 125 g ai/ha
  Plant response rating, Johnsongrass: 85
[5]; 250 g ai/ha
  Plant response rating, Johnsongrass: 95
[6]; 31 g ai/ha
  Plant response rating, Lambsquarters: 45
[6]; 62 g ai/ha
  Plant response rating, Lambsquarters: 80
[6]; 125 g ai/ha
  Plant response rating, Lambsquarters: 80
[6]; 250 g ai/ha
  Plant response rating, Lambsquarters: 90
[7]; 31 g ai/ha
  Plant response rating, Morningglory: 10
[7]; 62 g ai/ha
  Plant response rating, Morningglory: 20
[7]; 125 g ai/ha
  Plant response rating, Morningglory: 20
[7]; 250 g ai/ha
  Plant response rating, Morningglory: 40
[8]; 31 g ai/ha
  Plant response rating, Nutsedge, Yellow: 0
[8]; 62 g ai/ha
  Plant response rating, Nutsedge, Yellow: 0
[8]; 125 g ai/ha
  Plant response rating, Nutsedge, Yellow: 0
[8]; 250 g ai/ha
  Plant response rating, Nutsedge, Yellow: 0
[9]; 31 g ai/ha
  Plant response rating, Oilseed Rape: 80
[9]; 62 g ai/ha
  Plant response rating, Oilseed Rape: 85
[9]; 125 g ai/ha
  Plant response rating, Oilseed Rape: 80
[9]; 250 g ai/ha
  Plant response rating, Oilseed Rape: 90
[10]; 31 g ai/ha
  Plant response rating, Ragweed: 70
[10]; 62 g ai/ha
  Plant response rating, Ragweed: 70
[10]; 125 g ai/ha
  Plant response rating, Ragweed: 75
[10]; 250 g ai/ha
  Plant response rating, Ragweed: 90
[11]; 62 g ai/ha
  Plant response rating, Ryegrass, Italian: 55
[11]; 125 g ai/ha
  Plant response rating, Ryegrass, Italian: 70
[11]; 250 g ai/ha
  Plant response rating, Ryegrass, Italian: 85
Soybean (Glycine max); 62 g ai/ha
  Plant response rating, Soybean: 0
Soybean (Glycine max); 125 g ai/ha
  Plant response rating, Soybean: 0
Soybean (Glycine max); 250 g ai/ha
  Plant response rating, Soybean: 0
[12]; 62 g ai/ha
  Plant response rating, Velvetleaf: 30
[12]; 125 g ai/ha
  Plant response rating, Velvetleaf: 45
[12]; 250 g ai/ha
  Plant response rating, Velvetleaf: 60
[13]; 62 g ai/ha
  Plant response rating, Waterhemp: 75
[13]; 125 g ai/ha
  Plant response rating, Waterhemp: 80
[13]; 250 g ai/ha
  Plant response rating, Waterhemp: 95
[14]; 62 g ai/ha
  Plant response rating, Wheat: 50
[14]; 125 g ai/ha
  Plant response rating, Wheat: 70
[14]; 250 g ai/ha
  Plant response rating, Wheat: 90
